According to patent publication US9186361B2, “Compounds and compositions for the treatment of parasitic diseases” (Novartis AG, priority 2013, dated 2015):
pEC50: −log10 of the molar value.

How the values were obtained:
[1] = system: Leishmania donovani axenic amastigote parasites; assay: Assay for Leishmania proliferation in vitro (axenic amastigotes, Cell TiterGlo); assay type: cell-based; details: 48 h, 2 day incubation, read-out: L. donovani amastigotes EC50
Procedure: Leishmania donovani axenic amastigote parasites are grown at 37° C., 5% CO2 in media made of RPMI 1640, 4 mM L-glutamine, 20% heat inactivated FBS, 100 units/ml of penicillin and 100 μg/ml of streptomycin, 23 μM Folic Acid, 100 μM Adenosine, 22 mM D-glucose, 25 mM MES. The pH of media is adjusted to 5.5 at 37° C. using HCl. 20 μL of media is first dispensed into 384 well plates and […] of the compounds of invention in DMSO are added to the plate wells. At the same time control compounds and DMSO are added to plates to serve as the positive and negative controls, respectively. 40 μL of parasite culture (9600 parasites) are then added to the plate wells. The plates are then placed into incubators. After 2 day incubation, 20 μL of Cell TiterGlo (Promega) is added to the plate wells. The luminescence signal of each well is measured using the Envision reader (Perkin Elmer). The percentage inhibition of 50%, EC50, is calculated for each of the compounds.

[2] = system: L. donovani HU3 strain in mouse peritoneal macrophages; assay: Proliferation of L. donovani in mouse peritoneal macrophages (SybrGreen, high-content imaging); assay type: cell-based; details: Leishmania donovani, Peritoneal macrophage, 120 h; infected mouse peritoneal macrophages, 5 days; read-out: L. donavani Macrophage EC50
Source text: The activity of a compound according to the present invention for inhibition of parasitemai can be assessed by the parasite proliferation assay. The assay measures the increase in the parasite number in the assayed plate well using a DNA intercalating dye, SYBR Green I® dye (INVITROGEN) to stain Leishmania cell nuclei. It is understood that the assays illustrate the invention without in any way limiting the scope of the invention.
L. donovani HU3 strain is propagated by infecting BALBc mice through tail vein injection with 10^7 Leishmania parasites. Infected mice are allowed to develop infection during 9-11 weeks post-infection. During this time, the parasites accumulate in the infected mouse spleens to large numbers, and the infected mice serve as the source of parasites for the in vitro measurement of compound efficacies. To assay a compound for anti-leishmanial activity, peritoneal macrophages isolated from non-infected BALBc mice are seeded into 384-well plates at density 2×10^4 macrophages per well in 25 mL of medium (RPMI1640, 10% fetal serum albumin, 10 mM HEPES, 1 mM sodium pyruvate, 1% Pen/Strep). Subsequently, the seeded plates are placed into an incubator set to maintain 37° C. temperature and atmosphere with 5% CO2. The next day, Leishmania parasites are isolated from the spleens of mice infected for 9-11 weeks and 4×10^5 isolated parasites in […] of the above media are added to each plate well. Plates are then returned into incubators and infection is allowed to proceed for 24 hours. After the infection of macrophages is completed, […] of compounds of the invention in the above medium, which also contains 5% DMSO, are added to plate wells containing infected macrophages. At the same time control compounds (miltefosine and amphotericin B) and DMSO are added to plates to serve as the positive and negative controls, respectively. After the compound addition, the plates are returned into incubator and cells infected with parasites are cultured for 5 days. At the end of cultivation, […] of 8% paraformaldehyde is added to plate wells and incubated for 15 min at room temperature. Following the incubation, the paraformaldehyde from plate wells is aspirated, and […] of PBS containing 0.2% Triton X-100 is added to wells. After 15 min incubation, the solution is aspirated from wells again, and replaced with SybrGreen Dye solution in PBS (1:125,000 dilution). Infected cells are imaged with Evotec Opera high-content microscope, and the number of parasites in well is determined by counting parasite nuclei visualized by staining with SybrGreen dye. The percentage inhibition of 50%, EC50, is calculated for each compound.
The inhibitory efficacy of the compounds of the invention against proliferation of L. donovani in mouse peritoneal macrophages is provided in Table I.

For `CN(C)CC(=O)Nc1cnc2nc(-c3cc(NC(=O)c4ccco4)ccc3Cl)[nH]c2c1` [Example 40, N-(4-chloro-3-{6-[2-(dimethylamino)acetamido]-1H-imidazo[4,5-b]pyridin-2-yl}phenyl)furan-2-carboxamide], the pEC50 [1] was < 4.60 and the pEC50 [2] was 5.07.
`CN(C)c1cnc2nc(-c3cc(NC(=O)c4ccco4)ccc3Cl)[nH]c2c1` [Example 13, N-{4-chloro-3-[6-(dimethylamino)-1H-imidazo[4,5-b]pyridin-2-yl]phenyl}furan-2-carboxamide] was tested, and the pEC50 [1] was 5.63 and the pEC50 [2] was 5.07.
With `O=C(Nc1ccc(Cl)c(-c2nc3ncc(NCC4CCNCC4)cc3[nH]2)c1)c1ccco1` [Example 27, N-(4-chloro-3-{6-[(piperidin-4-ylmethyl)amino]-1H-imidazo[4,5-b]pyridin-2-yl}phenyl)furan-2-carboxamide] the pEC50 [1] was < 4.60 and the pEC50 [2] was < 4.30.
With `CC(C)S(=O)(=O)Nc1cnc2nc(-c3cccc(NC(=O)c4ccc(F)o4)c3)[nH]c2c1` [Example 77, 5-fluoro-N-{3-[6-(propane-2-sulfonamido)-1H-imidazo[4,5-b]pyridin-2-yl]phenyl}furan-2-carboxamide] the pEC50 [1] was < 4.60 and the pEC50 [2] was 4.64.
`CC(C)OC(=O)Nc1ccc(Cl)c(-c2nc3ncc(NC(=O)OC(C)C)cc3[nH]2)c1` [Example 4, propan-2-yl N-[2-(2-chloro-5-{[(propan-2-yloxy)carbonyl]amino}phenyl)-1H-imidazo[4,5-b]pyridin-6-yl]carbamate] was tested, and the pEC50 [1] was 6.36 and the pEC50 [2] was 6.08.
For `O=CNc1cnc2nc(-c3cc(NC(=O)c4ccc(F)o4)ccc3Cl)[nH]c2c1` [Example 74, N-(4-chloro-3-{6-formamido-1H-imidazo[4,5-b]pyridin-2-yl}phenyl)-5-fluorofuran-2-carboxamide], the pEC50 [1] was 4.97 and the pEC50 [2] was < 4.30.
With `O=C(Nc1ccc(Cl)c(-c2nc3ncc(NC(=O)C4(C(F)(F)F)CCC4)cc3[nH]2)c1)c1ccco1` [Example 37, N-[4-chloro-3-(6-{[1-(trifluoromethyl)cyclobutane]amido}-1H-imidazo[4,5-b]pyridin-2-yl)phenyl]furan-2-carboxamide] the pEC50 [1] was 6.07 and the pEC50 [2] was 6.28.
For `Cc1cnc(C(=O)Nc2cnc3nc(-c4cc(NC(=O)c5ccco5)ccc4Cl)[nH]c3c2)s1` [Example 1, N-{2-[2-chloro-5-(furan-2-amido)phenyl]-1H-imidazo[4,5-b]pyridin-6-yl}-5-methyl-1,3-thiazole-2-carboxamide], the pEC50 [1] was 6.89 and the pEC50 [2] was 6.14.
With `CN(C)S(=O)(=O)Nc1cnc2nc(-c3cc(NC(=O)c4ccco4)ccc3Cl)[nH]c2c1` [Example 51, N-(4-chloro-3-{6-[(dimethylsulfamoyl)amino]-1H-imidazo[4,5-b]pyridin-2-yl}phenyl)furan-2-carboxamide] the pEC50 [1] was < 4.60 and the pEC50 [2] was 5.06.
`NC(=O)C1(C(=O)Nc2cnc3nc(-c4cc(NC(=O)c5ccco5)ccc4Cl)[nH]c3c2)CC1` [Example 64, 1-N-{2-[2-chloro-5-(furan-2-amido)phenyl]-1H-imidazo[4,5-b]pyridin-6-yl}cyclopropane-1,1-dicarboxamide] was tested, and the pEC50 [1] was 4.68 and the pEC50 [2] was < 4.30.
In the case of `Cc1ccc(C(=O)Nc2ccc(Cl)c(-c3nc4ncc(N)cc4[nH]3)c2)o1` [Example 29, N-(3-{6-amino-1H-imidazo[4,5-b]pyridin-2-yl}-4-chlorophenyl)-5-methylfuran-2-carboxamide], the pEC50 [1] was < 4.60 and the pEC50 [2] was < 4.30.
For `CC(C)(N)CNc1cnc2nc(-c3cc(NC(=O)c4ccco4)ccc3Cl)[nH]c2c1` [Example 31, N-(3-{6-[(2-amino-2-methylpropyl)amino]-1H-imidazo[4,5-b]pyridin-2-yl}-4-chlorophenyl)furan-2-carboxamide], the pEC50 [1] was < 4.60 and the pEC50 [2] was < 4.30.
For `CC(C)(C)OC(=O)N1CC[C@H](CC(=O)Nc2cnc3nc(-c4cc(NC(=O)c5ccco5)ccc4Cl)[nH]c3c2)C1` [Example 28], the pEC50 [1] was < 4.60 and the pEC50 [2] was < 4.30.
With `NCCCNc1cnc2nc(-c3cc(NC(=O)c4ccc(F)o4)ccc3Cl)[nH]c2c1` [Example 69, N-(3-{6-[(3-aminopropyl)amino]-1H-imidazo[4,5-b]pyridin-2-yl}-4-chlorophenyl)-5-fluorofuran-2-carboxamide] the pEC50 [1] was < 4.60 and the pEC50 [2] was < 4.30.
In the case of `Cc1ccc(C(=O)Nc2ccc(Cl)c(-c3nc4ncc(NC(=O)OC(C)C)cc4[nH]3)c2)o1` [Example 17, propan-2-yl N-{2-[2-chloro-5-(5-methylfuran-2-amido)phenyl]-1H-imidazo[4,5-b]pyridin-6-yl}carbamate], the pEC50 [1] was 5.12 and the pEC50 [2] was 4.88.
With `CC(C)OC(=O)Nc1cnc2nc(-c3cc(NC(=O)c4ccco4)ccc3Cl)oc2c1` [Example 76, propan-2-yl N-(2-{2-chloro-5-[(furan-2-yl)carbonylamino]phenyl}-[1,3]oxazolo[4,5-b]pyridin-6-yl)carbamate] the pEC50 [1] was 6.59 and the pEC50 [2] was 6.35.
For `CC(C)OC(=O)Nc1cnc2nc(-c3cc(NC(=O)N4CCCC4)ccc3Cl)oc2c1` [Example 75, propan-2-yl N-(2-{2-chloro-5-[(pyrrolidin-1-yl)carbonylamino]phenyl}-[1,3]oxazolo[4,5-b]pyridin-6-yl)carbamate], the pEC50 [1] was 6.88 and the pEC50 [2] was 6.78.
Work on `CN(C)/C=N/c1cnc2nc(-c3cc(NC(=O)c4ccco4)ccc3Cl)[nH]c2c1` [Example 50, N-(4-chloro-3-{6-[(E)-[(dimethylamino)methylidene]amino]-1H-imidazo[4,5-b]pyridin-2-yl}phenyl)furan-2-carboxamide] yielded a pEC50 [1] of 5.22 and a pEC50 [2] of 5.29.
Work on `CC(C)(N)COC(=O)Nc1cnc2nc(-c3cc(NC(=O)c4ccco4)ccc3Cl)[nH]c2c1` [Example 23, 2-amino-2-methylpropyl N-{2-[2-chloro-5-(furan-2-amido)phenyl]-1H-imidazo[4,5-b]pyridin-6-yl}carbamate] yielded a pEC50 [1] of 4.68 and a pEC50 [2] of 4.47.
With `CC(C)S(=O)(=O)Nc1cnc2nc(-c3cc(NC(=O)c4ccc(C#N)o4)ccc3Cl)[nH]c2c1` [Example 60, N-{4-chloro-3-[6-(propane-2-sulfonamido)-1H-imidazo[4,5-b]pyridin-2-yl]phenyl}-5-cyanofuran-2-carboxamide] the pEC50 [1] was 5.61 and the pEC50 [2] was 4.75.
